Experiments:
[1] = system: 2D human cancer cell cultures; set-up: method as in PMID 18251492, PMID 21388518; conditions: cited from earlier work
[2] = system: p-PERK and p-IRE1 (UPR pathway); assay: IHC analysis of p-PERK and p-IRE1 in LLC tumor samples; format: in vivo, mouse; conditions: later-stage regimen
From the text: In order to investigate the in vivo activation of the UPR induced by HydroCuP, the levels of the phospho-PERK (p-PERK) and phospho-IRE1 (p-IRE1) were detected in tumor samples derived from treated LCC-bearing mice (following later-stage regimen). […] In control samples, p-PERK staining was found moderate in cytoplasm (in about 40% cell population) and intense in perinuclear-ER (about 5% of cell population). […] With regard to the […], p-IRE1, control tumors were weakly positive in cytoplasm (in about 15% cell population).
Figure 6 IHC analysis of p-PERK and p-IRE1 expression in LLC tumor samples. (A) Pictures show representative patterns of p-PERK and p-IRE1 expression by IHC in control LLC tumor samples (a and c) and in HydroCuP-treated tumor samples (b and d); magnification: ×10. (B) p-PERK (a) and p-IRE1 (b) values, evaluated in LLC tumor sections. The quantification of IHC images was performed by using Image J software. Columns indicate quantitative analysis in n = 3 different tumors per group; *P < 0.05.
To evaluate p-PERK and p-IRE1 expression, five-micron-thick formalin-fixed, paraffin-embedded (FFPE) tumor samples of LLC models (3 tumors/group, 3 sections/tumor and 3 images/sections) were stained by IHC using anti-human p-PERK (Thr981, Santa Cruz) or p-IRE1 (Ser724, Abcam) primary antibodies according to the manufacturer’s instructions. IHC was performed using a Leica Bond III Autostainer (Leica). Antigen retrieval was performed in citrate buffer for 15 min. Sections were counter-stained with Mayer’s haematoxylin. IHC results were evaluated by one experienced pathologist with no prior knowledge of experimental data. The quantification of IHC images was performed by using Image J software.

## F[P-](F)(F)(F)(F)F.OC[P+](CO)(CO)[Cu-3]([P+](CO)(CO)CO)([P+](CO)(CO)CO)[P+](CO)(CO)CO [HydroCuP, [Cu(thp)4][PF6]]
[1]
  Fold more cytotoxic than CDDP: up to 50
  Fold more cytotoxic than OXP: ≤ 30
[2]
  Cytoplasmic p-PERK positivity vs control: no difference in cytoplasmic p-PERK positivity
[2]; control about 5% of cell population
  Perinuclear-ER p-PERK staining: about 30%
[2]; control about 15% cell population
  Cytoplasmic p-IRE1 positivity (cell population): about 35%
